Experiment [1] addresses T1, Recombinant G2019S-LRRK2 protein (Homo sapiens, UniProt Q5S007, G2019S).
T1 construct: purchased Life Technologies PV4881
Briefly: LanthaScreen Kinase Activity Assay (TR-FRET), G2019S-LRRK2. It is filed as biochemical. Conditions: class symbols; 25 μM ATP, 400 nM LRRKtide, 2.9 nM kinase, 60 min at room temperature. In a few lines: (§1)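 Recombinant wild-type or G2019S LRRK2 (2.9 nM final) phosphorylated fluorescein-LRRKtide (400 nM) with 25 μM ATP in 50 mM Tris pH 8.5, 5 mM MgCl2, 1 mM EGTA, 0.01% Brij-35, 2 mM DTT for 60 min at RT. After EDTA stop, Tb-anti-pERM TR-FRET (520/495 nm ratio) was read. IC50 values came from 11-point, 3-fold compound dilutions.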

Experiment [2] deals with T2, Recombinant wild type LRRK2 protein (Homo sapiens, UniProt Q5S007).
T2 construct: purchased Life Technologies PR8604B
Description: LanthaScreen Kinase Activity Assay (TR-FRET), wild type LRRK2. It is filed as biochemical. Conditions: class symbols; 25 μM ATP, 400 nM LRRKtide, 2.9 nM kinase, 60 min at room temperature; read-out: LRRK2 WT IC50. In a few lines:
as §1
A general note: TR-FRET usually uses a lanthanide donor and a delayed reading to cut background.

pIC50: −log10 of the molar value.

T1 sequence (Q5S007 whole entry G2019S): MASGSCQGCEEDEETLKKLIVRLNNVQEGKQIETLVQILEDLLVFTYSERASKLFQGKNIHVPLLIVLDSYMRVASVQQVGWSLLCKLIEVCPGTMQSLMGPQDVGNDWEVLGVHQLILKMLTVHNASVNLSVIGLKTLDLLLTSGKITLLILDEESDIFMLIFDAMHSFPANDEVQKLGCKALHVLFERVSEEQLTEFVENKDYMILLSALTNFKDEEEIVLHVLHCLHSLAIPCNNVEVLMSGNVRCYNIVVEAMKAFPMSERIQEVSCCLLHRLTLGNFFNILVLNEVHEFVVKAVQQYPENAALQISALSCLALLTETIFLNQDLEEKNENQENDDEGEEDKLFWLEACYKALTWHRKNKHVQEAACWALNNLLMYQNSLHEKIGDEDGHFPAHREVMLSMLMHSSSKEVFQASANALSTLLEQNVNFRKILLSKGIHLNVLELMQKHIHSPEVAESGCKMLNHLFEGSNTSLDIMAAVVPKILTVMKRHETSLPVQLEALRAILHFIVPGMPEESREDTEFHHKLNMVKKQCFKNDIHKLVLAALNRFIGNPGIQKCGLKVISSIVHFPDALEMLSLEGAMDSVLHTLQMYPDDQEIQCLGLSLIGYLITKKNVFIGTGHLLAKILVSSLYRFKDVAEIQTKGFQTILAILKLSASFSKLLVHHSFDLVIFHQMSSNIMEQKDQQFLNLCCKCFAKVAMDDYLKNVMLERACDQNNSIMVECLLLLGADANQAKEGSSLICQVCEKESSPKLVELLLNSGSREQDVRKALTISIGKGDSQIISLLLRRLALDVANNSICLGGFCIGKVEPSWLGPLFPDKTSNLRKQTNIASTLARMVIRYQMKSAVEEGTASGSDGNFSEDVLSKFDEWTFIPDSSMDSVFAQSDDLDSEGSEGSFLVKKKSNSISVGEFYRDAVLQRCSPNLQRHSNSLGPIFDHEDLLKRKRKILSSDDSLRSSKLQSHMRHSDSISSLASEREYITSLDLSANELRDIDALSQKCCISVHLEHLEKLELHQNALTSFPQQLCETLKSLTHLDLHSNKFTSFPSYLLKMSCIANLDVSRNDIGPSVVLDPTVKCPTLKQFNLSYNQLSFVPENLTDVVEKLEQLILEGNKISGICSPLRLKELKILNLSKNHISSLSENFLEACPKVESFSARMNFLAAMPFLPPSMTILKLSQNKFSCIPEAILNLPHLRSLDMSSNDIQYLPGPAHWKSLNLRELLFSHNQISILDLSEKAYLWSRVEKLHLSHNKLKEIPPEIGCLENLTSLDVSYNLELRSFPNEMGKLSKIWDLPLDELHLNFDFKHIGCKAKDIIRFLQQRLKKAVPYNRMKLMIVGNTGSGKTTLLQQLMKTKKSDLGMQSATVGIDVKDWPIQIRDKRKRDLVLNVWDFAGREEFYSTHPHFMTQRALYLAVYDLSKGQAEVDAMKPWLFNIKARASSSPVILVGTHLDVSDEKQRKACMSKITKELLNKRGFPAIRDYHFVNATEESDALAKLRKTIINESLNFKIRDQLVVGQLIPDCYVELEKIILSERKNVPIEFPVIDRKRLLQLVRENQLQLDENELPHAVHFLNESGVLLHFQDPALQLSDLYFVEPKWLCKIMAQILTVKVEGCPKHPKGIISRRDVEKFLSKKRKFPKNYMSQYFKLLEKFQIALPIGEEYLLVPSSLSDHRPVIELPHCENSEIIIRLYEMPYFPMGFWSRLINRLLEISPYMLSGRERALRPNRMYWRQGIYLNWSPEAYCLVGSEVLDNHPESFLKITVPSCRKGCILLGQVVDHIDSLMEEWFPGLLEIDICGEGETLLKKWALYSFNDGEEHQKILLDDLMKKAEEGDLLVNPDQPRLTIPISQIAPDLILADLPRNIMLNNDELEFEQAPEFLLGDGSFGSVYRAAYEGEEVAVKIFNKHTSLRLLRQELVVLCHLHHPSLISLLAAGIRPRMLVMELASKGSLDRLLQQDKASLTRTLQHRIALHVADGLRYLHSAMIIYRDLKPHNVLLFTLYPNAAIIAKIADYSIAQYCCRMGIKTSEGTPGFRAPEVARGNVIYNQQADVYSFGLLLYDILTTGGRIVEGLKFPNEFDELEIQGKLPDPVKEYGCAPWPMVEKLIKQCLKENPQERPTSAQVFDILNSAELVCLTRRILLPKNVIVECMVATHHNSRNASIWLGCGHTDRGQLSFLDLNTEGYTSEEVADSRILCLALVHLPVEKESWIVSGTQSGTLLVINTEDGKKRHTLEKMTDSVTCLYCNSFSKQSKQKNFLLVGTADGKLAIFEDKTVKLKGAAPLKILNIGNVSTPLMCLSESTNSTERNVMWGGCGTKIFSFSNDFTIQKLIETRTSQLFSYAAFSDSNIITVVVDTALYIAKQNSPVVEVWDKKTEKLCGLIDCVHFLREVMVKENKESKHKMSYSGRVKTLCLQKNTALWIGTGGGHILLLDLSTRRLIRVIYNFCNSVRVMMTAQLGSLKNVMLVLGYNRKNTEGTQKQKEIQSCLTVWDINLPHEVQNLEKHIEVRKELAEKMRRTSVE
T2 sequence (Q5S007 whole entry): as the sequence (Q5S007 whole entry G2019S) above, with S2019G counted along it

`Cc1cc2cncn2c(C)c1C(=O)Nc1ccc2[nH]nc(C)c2c1` [Example 55, 5,7-Dimethyl-N-(3-methyl-1H-indazol-5-yl)imidazo[1,5-a]pyridine-6-carboxamide]: the negative logarithm of the IC50 (pIC50) in experiment [1] was no less than 7.00; in experiment [2], 5.00 to 6.00.

As to `O=C(Nc1ccc2[nH]nc(-c3ccoc3)c2c1)c1cc2ncccc2s1` [Example 125, N-(3-(Furan-3-yl)-1H-indazol-5-yl)thieno[3,2-b]pyridine-2-carboxamide], the pIC50 in experiment [1] was no less than 7.00; in experiment [2] it was 6.00 to 7.00.

For the molecule `Cc1cccc(-c2n[nH]c3ccc(NC(=O)c4c(C)cc5cnnn5c4C)cc23)c1C` [Example 47, N-(3-(2,3-Dimethylphenyl)-1H-indazol-5-yl)-5,7-dimethyl-[1,2,3]triazolo[1,5-a]pyridine-6-carboxamide], the pIC50 in experiment [1] is 6.00 to 7.00; in experiment [2], 5.00 to 6.00.

Take `CN(C)c1cccc(-c2n[nH]c3ccc(NC(=O)c4c(F)cc5c(cnn5C)c4F)cc23)c1` [Example 88, N-(3-(3-(Dimethylamino)phenyl)-1H-indazol-5-yl)-4,6-difluoro-1-methyl-1H-indazole-5-carboxamide]: the pIC50 in experiment [1] and in experiment [2] was no less than 7.00 each time.

On to `COc1ccccc1-c1n[nH]c2ccc(NC(=O)c3c(F)cc4c(cnn4C)c3F)cc12` [Example 85, 4,6-Difluoro-N-(3-(2-methoxyphenyl)-1H-indazol-5-yl)-1-methyl-1H-indazole-5-carboxamide], for which the pIC50 in experiment [1] was no less than 7.00; in experiment [2], 5.00 to 6.00.

As to `COc1n[nH]c2ccc(NC(=O)c3c(F)cc4c(cnn4C)c3F)cc12` [Example 106, 4,6-Difluoro-N-(3-methoxy-1H-indazol-5-yl)-1-methyl-1H-indazole-5-carboxamide], the negative logarithm of the IC50 (pIC50) was no less than 7.00 in experiment [1] and 5.00 to 6.00 in experiment [2].

Consider `Cc1n[nH]c2ccc(NC(=O)c3ccn4cnnc4c3)cc12` [Example 5, N-(3-Methyl-1H-indazol-5-yl)-[1,2,4]triazolo[4,3-a]pyridine-7-carboxamide], for which the negative logarithm of the IC50 (pIC50) in experiment [1] and in experiment [2] was 5.00 to 6.00 each time.

`COc1ccc(C)cc1-c1n[nH]c2ccc(NC(=O)c3c(F)cc4c(cnn4C)c3F)cc12` [Example 89, 4,6-Difluoro-N-(3-(2-methoxy-5-methylphenyl)-1H-indazol-5-yl)-1-methyl-1H-indazole-5-carboxamide]: the values for the pIC50 in experiment [1] and in experiment [2] were no less than 7.00 and 6.00 to 7.00, respectively.

Regarding `COc1cncc(-c2n[nH]c3ccc(NC(=O)c4c(F)cc5c(cnn5C)c4F)cc23)c1` [Example 82, 4,6-Difluoro-N-(3-(5-methoxypyridin-3-yl)-1H-indazol-5-yl)-1-methyl-1H-indazole-5-carboxamide], the pIC50 in experiment [1] and in experiment [2] was no less than 7.00 in each case.

`Cc1cn2cnnc2c(C)c1C(=O)Nc1ccc2[nH]nc(C)c2c1` [Example 58, 6,8-Dimethyl-N-(3-methyl-1H-indazol-5-yl)-[1,2,4]triazolo[4,3-a]pyridine-7-carboxamide]: the negative logarithm of the IC50 (pIC50) in experiment [1] was 6.00 to 7.00; in experiment [2], 5.00 to 6.00.

A word on the pIC50: it is −log10 of the IC50, conventionally taken in molar units.

The values above are taken from patent US20220162192A1 (ESCAPE Bio, Inc., priority 2019, published 2022).
